Assay results published in publication PMC6154005, “From Cell to Beak: In-Vitro and In-Vivo Characterization of Chicken Bitter Taste Thresholds” (Molecules : A Journal of Synthetic Chemistry and Natural …, 2017).
Counter-ions that a name gives are not always drawn.

Assays:
Test in all cases: calcium imaging (Fluo4-AM, FLIPR) in transfected cells
Assay type in all cases: cell-based
Settings in all cases: agonist; HEK 293T-Galpha16gust44 cells; 2.5 mM probenecid at dye loading; lowest activating concentration, no EC50
[1] = biological target: T1, ggTas2r2 (Gallus gallus, UniProt A0A1D5PXM6)
T1 construct: gene LOC101747503; cDNA in pcDNA5FRT, transiently expressed in HEK 293T-Galpha16gust44 cells
T1 sequence (A0A1D5PXM6 1-311): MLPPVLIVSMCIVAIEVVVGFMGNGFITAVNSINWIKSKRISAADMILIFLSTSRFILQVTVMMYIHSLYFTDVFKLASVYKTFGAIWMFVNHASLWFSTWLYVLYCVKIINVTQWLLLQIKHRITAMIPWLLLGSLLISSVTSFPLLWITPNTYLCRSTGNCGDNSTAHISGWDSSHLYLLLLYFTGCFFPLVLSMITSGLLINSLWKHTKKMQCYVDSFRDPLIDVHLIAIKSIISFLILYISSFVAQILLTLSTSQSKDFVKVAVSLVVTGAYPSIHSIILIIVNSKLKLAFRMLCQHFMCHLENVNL

[2] = biological target: T2, ggTas2r1 (Gallus gallus, UniProt Q2AB83)
T2 construct: gene TAS2R40; cDNA in pcDNA5FRT, transiently expressed in HEK 293T-Galpha16gust44 cells
T2 sequence (Q2AB83 1-311): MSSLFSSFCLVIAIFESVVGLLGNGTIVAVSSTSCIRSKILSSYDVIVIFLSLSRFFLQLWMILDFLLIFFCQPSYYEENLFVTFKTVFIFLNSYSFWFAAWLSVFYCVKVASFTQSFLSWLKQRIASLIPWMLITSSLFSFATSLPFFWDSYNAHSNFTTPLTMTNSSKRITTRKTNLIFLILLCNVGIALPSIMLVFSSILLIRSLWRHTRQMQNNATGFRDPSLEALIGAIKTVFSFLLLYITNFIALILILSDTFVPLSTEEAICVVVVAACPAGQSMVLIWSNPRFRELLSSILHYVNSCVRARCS

[3] = biological target: T3, ggTas2r7 (Gallus gallus, UniProt Q2AB81)
T3 construct: gene TAS2R7; cDNA in pcDNA5FRT, transiently expressed in HEK 293T-Galpha16gust44 cells
T3 sequence (Q2AB81 1-321): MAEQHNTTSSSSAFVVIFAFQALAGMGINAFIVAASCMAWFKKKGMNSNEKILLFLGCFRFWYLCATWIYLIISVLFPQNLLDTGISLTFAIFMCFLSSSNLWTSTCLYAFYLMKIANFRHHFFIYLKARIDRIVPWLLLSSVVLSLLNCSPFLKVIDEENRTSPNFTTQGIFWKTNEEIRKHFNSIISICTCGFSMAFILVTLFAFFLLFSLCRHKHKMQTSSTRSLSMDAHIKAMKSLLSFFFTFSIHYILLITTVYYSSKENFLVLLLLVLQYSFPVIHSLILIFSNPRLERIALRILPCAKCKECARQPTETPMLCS

| SMILES | Threshold Concentrations (mM) / In-Vitro [1] [mM] | Threshold Concentrations (mM) / In-Vitro [2] [mM] | Threshold Concentrations (mM) / In-Vitro [3] [mM] |
| --- | --- | --- | --- |
| C=C[C@H]1CN2CC[C@H]1C[C@H]2[C@H](O)c1ccnc2ccc(OC)cc12 [quinine hydrochloride] | 0.01 | 0.01 | 0.01 |
| Oc1cc(O)c2c(c1)O[C@H](c1ccc(O)c(O)c1)[C@@H](O)C2 [(+)-catechin] | – | – | 0.3 |
